Measurements: EP4745137A1 (Gluetacs Therapeutics (Shanghai) Co., Ltd., priority 2023, dated 2025)

Assays:
IKZF3 = biological target: T1, IKZF3 (Homo sapiens, UniProt Q96SW2+Q9UKT9); assay: Western-blot assay of substrate protein degradation in hPBMCs, IKZF3; assay type: cell-based; conditions: 24 hours of compound treatment, compounds tested at 50 nM and 500 nM (concentration of the table not stated)
T1 construct: endogenous in cells; host or cells: hPBMCs (Milecell Biotechnologies)

MM.1R = assay: Tumor cell proliferation inhibition (CellTiter-Meiluncell Luminescent Cell Viability Assay), MM.1R; conditions: Homo sapiens, 96 h, read-out: inhibitory activity (IC50, nM) against tumor cells proliferation, MM.1R
Method: The tumor cells used herein were cultured in a cell culture medium listed in table 2 at 37°C in an incubator with 5% CO2. Prior to experimentation, all cell lines used were correctly identified by STR profiling, and tested negative for mycoplasma contamination using a mycoplasma detection kit through routine screenings.
On the following day, the test compounds of the present disclosure were subjected to serial dilution. […] Subsequently, 0.5 µL of the test compound dilution was transferred into the 96-well plate containing the cells, with each well containing 100 µL of cell culture medium. […] Into the 96-well plate, the diluted test compounds and corresponding detection reagents were added, resulting in final test compound concentrations of 500 nM and 10 nM, respectively. The experimental procedure is described below using the diluted 2 µM test compound as an example.
After the cells were treated with the compounds of the present disclosure for a specified period (the treatment durations were shown in Table 3), the cell viability assay reagent was added to the culture medium according to the kit's instructions to determine cell viability. […] All controls were treated using the same procedure as the compounds of the present disclosure. The growth inhibition curves for the compounds of the present disclosure were plotted using Prism GraphPad software, and the IC50 values were calculated therefrom.

CCRF-CEM = assay: Tumor cell proliferation inhibition (CellTiter-Meiluncell Luminescent Cell Viability Assay), CCRF-CEM; conditions: Homo sapiens, 96 h, read-out: inhibitory activity (IC50, nM) against tumor cells proliferation, CCRF-CEM
CAL-62 = assay: Tumor cell proliferation inhibition (CellTiter-Meiluncell Luminescent Cell Viability Assay), CAL-62; conditions: Homo sapiens, CAL-62, 96 h, read-out: inhibitory activity (IC50, nM) against tumor cells proliferation, CAL-62
[1] = tested on: Human acute T lymphocytic leukemia cells (Molt-4); assay: Tumor cell proliferation inhibition (CellTiter-Meiluncell Luminescent Cell Viability Assay), Molt-4; conditions: MOLT-4, 96 h, read-out: inhibitory activity (IC50, nM) against tumor cells proliferation, Molt 4
[2] = biological target: T2, human Cereblon WT GST-tagged protein (Homo sapiens, UniProt Q96SW2); assay: CRBN-binding affinity by HTRF (CEREBLON BINDING kit); conditions: HTRF inhibitory activity, CEREBLON BINDING kit; read-out: HTRF IC50
T2 construct: purchased CISBIO 64BDCRBNPEH
T2 sequence (Q96SW2 whole entry): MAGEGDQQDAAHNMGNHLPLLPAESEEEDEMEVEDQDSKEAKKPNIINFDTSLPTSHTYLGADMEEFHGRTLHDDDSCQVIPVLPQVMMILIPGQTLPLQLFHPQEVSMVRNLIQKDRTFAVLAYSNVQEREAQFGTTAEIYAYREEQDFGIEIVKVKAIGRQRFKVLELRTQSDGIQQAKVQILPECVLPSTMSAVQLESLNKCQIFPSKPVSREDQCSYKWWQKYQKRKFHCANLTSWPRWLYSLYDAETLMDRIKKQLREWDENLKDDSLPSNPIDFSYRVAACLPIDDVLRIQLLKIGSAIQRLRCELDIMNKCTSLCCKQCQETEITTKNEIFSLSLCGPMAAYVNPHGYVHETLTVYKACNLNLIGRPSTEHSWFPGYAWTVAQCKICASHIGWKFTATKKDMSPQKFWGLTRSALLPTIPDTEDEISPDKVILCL

GSPT1 = biological target: T3, GSPT1 (Homo sapiens, UniProt P15170+Q96SW2); assay: Western-blot assay of substrate protein degradation in hPBMCs, GSPT1; assay type: cell-based; conditions: 24 hours of compound treatment, compounds tested at 50 nM and 500 nM (concentration of the table not stated)
T3 construct: endogenous in cells; host or cells: hPBMCs (Milecell Biotechnologies)
T3 sequence (P15170 whole entry): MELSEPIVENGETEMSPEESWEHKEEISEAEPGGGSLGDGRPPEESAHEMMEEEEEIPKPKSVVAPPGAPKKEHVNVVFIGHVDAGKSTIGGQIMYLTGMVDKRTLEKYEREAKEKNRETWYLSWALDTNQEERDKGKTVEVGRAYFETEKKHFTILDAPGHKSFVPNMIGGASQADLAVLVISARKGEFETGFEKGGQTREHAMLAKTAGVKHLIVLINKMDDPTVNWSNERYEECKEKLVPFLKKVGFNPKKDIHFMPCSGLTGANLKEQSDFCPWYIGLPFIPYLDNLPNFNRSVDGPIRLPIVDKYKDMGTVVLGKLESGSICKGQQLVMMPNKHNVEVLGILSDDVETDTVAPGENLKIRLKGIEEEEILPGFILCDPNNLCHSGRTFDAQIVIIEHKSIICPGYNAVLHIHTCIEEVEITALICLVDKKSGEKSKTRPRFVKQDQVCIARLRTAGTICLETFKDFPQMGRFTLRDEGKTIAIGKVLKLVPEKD
T3 sequence (Q96SW2 whole entry): as the sequence (Q96SW2 whole entry) above
T3 sequence (Q16531 whole entry partner): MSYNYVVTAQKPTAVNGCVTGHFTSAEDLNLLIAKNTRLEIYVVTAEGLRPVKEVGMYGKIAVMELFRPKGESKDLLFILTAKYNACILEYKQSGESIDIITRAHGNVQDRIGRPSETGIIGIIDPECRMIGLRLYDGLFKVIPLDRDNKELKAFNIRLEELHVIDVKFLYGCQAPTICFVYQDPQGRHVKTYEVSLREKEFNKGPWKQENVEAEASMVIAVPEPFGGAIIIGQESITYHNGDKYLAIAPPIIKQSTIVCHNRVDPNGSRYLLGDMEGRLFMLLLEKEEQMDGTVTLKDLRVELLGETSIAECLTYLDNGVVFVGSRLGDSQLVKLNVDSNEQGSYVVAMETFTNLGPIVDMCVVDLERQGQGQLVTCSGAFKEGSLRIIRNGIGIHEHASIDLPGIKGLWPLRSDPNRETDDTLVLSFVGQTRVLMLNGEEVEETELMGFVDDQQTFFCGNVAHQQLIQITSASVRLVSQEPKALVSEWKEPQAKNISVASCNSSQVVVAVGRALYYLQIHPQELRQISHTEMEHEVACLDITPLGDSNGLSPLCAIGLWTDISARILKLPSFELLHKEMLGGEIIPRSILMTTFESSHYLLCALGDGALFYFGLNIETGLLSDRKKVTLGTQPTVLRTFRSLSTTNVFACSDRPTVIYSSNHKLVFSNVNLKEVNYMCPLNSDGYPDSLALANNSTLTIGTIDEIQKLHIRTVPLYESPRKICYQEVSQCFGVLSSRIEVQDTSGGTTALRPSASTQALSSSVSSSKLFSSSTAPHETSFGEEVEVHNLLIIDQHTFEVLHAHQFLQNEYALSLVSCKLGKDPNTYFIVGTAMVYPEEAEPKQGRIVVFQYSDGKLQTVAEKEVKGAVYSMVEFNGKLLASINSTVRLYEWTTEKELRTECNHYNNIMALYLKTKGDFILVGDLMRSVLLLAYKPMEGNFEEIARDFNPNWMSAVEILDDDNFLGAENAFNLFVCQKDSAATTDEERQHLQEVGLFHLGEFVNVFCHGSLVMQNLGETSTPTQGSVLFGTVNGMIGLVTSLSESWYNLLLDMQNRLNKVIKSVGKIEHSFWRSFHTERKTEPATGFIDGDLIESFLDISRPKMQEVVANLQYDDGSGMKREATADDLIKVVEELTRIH

WEE1 = biological target: T4, WEE1 (Homo sapiens, UniProt P30291+Q96SW2); assay: Western-blot assay of substrate protein degradation in hPBMCs, WEE1; assay type: cell-based; conditions: 24 hours of compound treatment, compounds tested at 50 nM and 500 nM (concentration of the table not stated)
T4 construct: endogenous in cells; host or cells: hPBMCs (Milecell Biotechnologies)
T4 sequence (P30291 whole entry): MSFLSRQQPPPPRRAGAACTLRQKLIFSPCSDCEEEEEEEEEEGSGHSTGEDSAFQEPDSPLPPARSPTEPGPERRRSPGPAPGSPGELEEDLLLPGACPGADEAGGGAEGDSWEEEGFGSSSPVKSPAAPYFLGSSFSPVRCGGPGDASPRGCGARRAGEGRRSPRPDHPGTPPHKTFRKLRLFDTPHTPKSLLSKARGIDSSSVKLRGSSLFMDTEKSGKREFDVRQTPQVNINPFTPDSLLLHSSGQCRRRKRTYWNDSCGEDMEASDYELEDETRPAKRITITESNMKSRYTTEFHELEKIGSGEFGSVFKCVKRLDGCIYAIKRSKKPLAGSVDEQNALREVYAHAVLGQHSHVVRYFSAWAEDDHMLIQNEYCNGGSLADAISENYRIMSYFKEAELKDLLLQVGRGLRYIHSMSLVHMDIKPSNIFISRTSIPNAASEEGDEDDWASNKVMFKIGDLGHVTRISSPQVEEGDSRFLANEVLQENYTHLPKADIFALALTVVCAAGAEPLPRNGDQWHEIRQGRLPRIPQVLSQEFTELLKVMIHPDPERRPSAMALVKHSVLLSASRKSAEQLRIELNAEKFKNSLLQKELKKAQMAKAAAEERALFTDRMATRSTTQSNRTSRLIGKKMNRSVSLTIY
T4 sequence (Q96SW2 whole entry): as the sequence (Q96SW2 whole entry) above
T4 sequence (Q16531 whole entry partner): as the sequence (Q16531 whole entry partner) above

CK1α = biological target: T5, CK1α (Homo sapiens, UniProt P48729+Q96SW2); assay: Western-blot assay of substrate protein degradation in hPBMCs, CK1α; assay type: cell-based; conditions: 24 hours of compound treatment, compounds tested at 50 nM and 500 nM (concentration of the table not stated)
T5 construct: endogenous in cells; host or cells: hPBMCs (Milecell Biotechnologies)
T5 sequence (P48729 whole entry): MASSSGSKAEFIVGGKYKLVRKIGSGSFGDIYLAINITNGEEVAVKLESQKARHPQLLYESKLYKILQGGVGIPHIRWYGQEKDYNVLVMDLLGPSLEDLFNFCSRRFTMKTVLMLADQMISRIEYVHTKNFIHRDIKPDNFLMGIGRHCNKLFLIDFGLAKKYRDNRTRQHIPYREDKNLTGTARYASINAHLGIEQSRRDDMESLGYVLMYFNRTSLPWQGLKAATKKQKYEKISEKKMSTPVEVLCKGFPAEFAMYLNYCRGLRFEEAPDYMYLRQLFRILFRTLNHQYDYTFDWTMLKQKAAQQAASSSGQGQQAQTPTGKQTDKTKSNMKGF
T5 sequence (Q96SW2 whole entry): as the sequence (Q96SW2 whole entry) above
T5 sequence (Q16531 whole entry partner): as the sequence (Q16531 whole entry partner) above

Jurkat = assay: Tumor cell proliferation inhibition (CellTiter-Meiluncell Luminescent Cell Viability Assay), Jurkat; conditions: Homo sapiens, 96 h, read-out: inhibitory activity (IC50, nM) against tumor cells proliferation, Jurkat
IKZF1 = biological target: T6, IKZF1 (Homo sapiens, UniProt Q13422+Q96SW2); assay: Western-blot assay of substrate protein degradation in hPBMCs, IKZF1; assay type: cell-based; conditions: 24 hours of compound treatment, compounds tested at 50 nM and 500 nM (concentration of the table not stated)
T6 construct: endogenous in cells; host or cells: hPBMCs (Milecell Biotechnologies)
T6 sequence (Q13422 whole entry): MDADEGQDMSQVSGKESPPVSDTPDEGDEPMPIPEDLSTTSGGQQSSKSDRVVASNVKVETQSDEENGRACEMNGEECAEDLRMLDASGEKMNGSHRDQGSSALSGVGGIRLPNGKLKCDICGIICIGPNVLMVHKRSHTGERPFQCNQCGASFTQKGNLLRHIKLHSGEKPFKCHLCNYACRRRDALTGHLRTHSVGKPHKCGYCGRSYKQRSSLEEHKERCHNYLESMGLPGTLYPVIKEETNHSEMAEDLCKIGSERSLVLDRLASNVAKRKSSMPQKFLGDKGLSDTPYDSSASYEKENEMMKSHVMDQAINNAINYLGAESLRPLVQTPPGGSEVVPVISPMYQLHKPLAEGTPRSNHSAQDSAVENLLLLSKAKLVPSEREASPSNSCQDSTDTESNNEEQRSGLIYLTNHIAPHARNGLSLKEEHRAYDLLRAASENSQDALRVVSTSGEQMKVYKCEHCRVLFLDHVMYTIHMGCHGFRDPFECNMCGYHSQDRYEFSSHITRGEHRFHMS
T6 sequence (Q96SW2 whole entry): as the sequence (Q96SW2 whole entry) above
T6 sequence (Q16531 whole entry partner): as the sequence (Q16531 whole entry partner) above

Vcap = assay: Tumor cell proliferation inhibition (CellTiter-Meiluncell Luminescent Cell Viability Assay), Vcap; conditions: Homo sapiens, 96 h, read-out: inhibitory activity (IC50, nM) against tumor cells proliferation, Vcap
IKZF2 = biological target: T7, IKZF2 (Homo sapiens, UniProt Q96SW2+Q9UKS7); assay: Western-blot assay of substrate protein degradation in hPBMCs, IKZF2; assay type: cell-based; conditions: 24 hours of compound treatment, compounds tested at 50 nM and 500 nM (concentration of the table not stated)
T7 construct: endogenous in cells; host or cells: hPBMCs (Milecell Biotechnologies)

NCI-H1975 = assay: Tumor cell proliferation inhibition (CellTiter-Meiluncell Luminescent Cell Viability Assay), NCI-H1975; conditions: Homo sapiens, NCI-H1975, 96 h, read-out: inhibitory activity (IC50, nM) against tumor cells proliferation, H1975
[3] = tested on: Human breast cancer cells (MDA-MB-231); assay: Tumor cell proliferation inhibition (CellTiter-Meiluncell Luminescent Cell Viability Assay), MDA-MB-231; conditions: MDA-MB-231, 96 h, read-out: inhibitory activity (IC50, nM) against tumor cells proliferation, MDA-MB-231

T1 sequence (Q9UKT9 whole entry): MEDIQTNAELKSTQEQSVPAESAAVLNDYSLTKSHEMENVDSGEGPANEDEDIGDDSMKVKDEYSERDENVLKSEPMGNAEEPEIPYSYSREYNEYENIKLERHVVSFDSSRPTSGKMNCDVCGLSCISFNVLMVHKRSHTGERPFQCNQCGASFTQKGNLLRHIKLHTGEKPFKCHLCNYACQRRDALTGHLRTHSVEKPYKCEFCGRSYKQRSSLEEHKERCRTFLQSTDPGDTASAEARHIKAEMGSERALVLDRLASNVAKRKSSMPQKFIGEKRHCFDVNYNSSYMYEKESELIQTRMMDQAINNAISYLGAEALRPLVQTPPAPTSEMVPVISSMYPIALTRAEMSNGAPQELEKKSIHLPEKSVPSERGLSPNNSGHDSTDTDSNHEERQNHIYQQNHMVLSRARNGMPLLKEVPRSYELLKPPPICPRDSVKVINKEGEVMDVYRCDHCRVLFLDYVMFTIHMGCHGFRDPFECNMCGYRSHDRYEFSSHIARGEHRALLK
T1 sequence (Q96SW2 whole entry): as the sequence (Q96SW2 whole entry) above
T1 sequence (Q16531 whole entry partner): as the sequence (Q16531 whole entry partner) above

## O=C1CCC(N2Cc3cc(CN4CCN(c5cc(Cl)ccn5)CC4)ccc3C2=O)C(=O)N1 (stereo not drawn) [GT-04430, 3-(5-((4-(4-chloropyridin-2-yl)piperazin-1-yl)methyl)-1-oxoisoindolin-2-yl)piperidine-2,6-dione]
IKZF3
  IKZF3 substrate protein remaining %: A (0% ≤ substrate protein remaining % ≤ 80%)
MM.1R
  IC50: 50 to 100 nM
CCRF-CEM
  IC50: 10 to 50 nM
CAL-62
  IC50: 50 to 100 nM
[1]
  IC50: 10 to 50 nM
[2]
  IC50: 500 to 1000 nM
GSPT1
  GSPT1 substrate protein remaining %: A (0% ≤ substrate protein remaining % ≤ 80%)
WEE1
  Weel substrate protein remaining %: B (80%< substrate protein remaining %≤ 100%)
CK1α
  CK1a substrate protein remaining %: B (80%< substrate protein remaining %≤ 100%)
Jurkat
  IC50: 10 to 50 nM
IKZF1
  IKZF 1 substrate protein remaining %: A (0% ≤ substrate protein remaining % ≤ 80%)
Vcap
  IC50: 100 to 500 nM
IKZF2
  IKZF2 substrate protein remaining %: A (0% ≤ substrate protein remaining % ≤ 80%)

## Cc1ccccc1N1CCN(Cc2ccc3c(c2)CN(C2CCC(=O)NC2=O)C3=O)CC1 (stereo not drawn) [GT-04461, 3-(1-oxo-5-((4-(o-tolyl)piperazin-1-yl)methyl)isoindolin-2-yl)piperidine-2,6-dione]
IKZF3
  IKZF3 substrate protein remaining %: A (0% ≤ substrate protein remaining % ≤ 80%)
MM.1R
  IC50: 10 to 50 nM
CCRF-CEM
  IC50: 10 to 50 nM
CAL-62
  IC50: 50 to 100 nM
[1]
  IC50: 10 to 50 nM
[2]
  IC50: 1000 to 1500 nM
GSPT1
  GSPT1 substrate protein remaining %: A (0% ≤ substrate protein remaining % ≤ 80%)
WEE1
  Weel substrate protein remaining %: A (0% ≤ substrate protein remaining % ≤ 80%)
CK1α
  CK1a substrate protein remaining %: B (80%< substrate protein remaining %≤ 100%)
Jurkat
  IC50: 10 to 50 nM
IKZF1
  IKZF 1 substrate protein remaining %: A (0% ≤ substrate protein remaining % ≤ 80%)
Vcap
  IC50: 100 to 500 nM
IKZF2
  IKZF2 substrate protein remaining %: A (0% ≤ substrate protein remaining % ≤ 80%)

## O=C1CCC(N2Cc3cc(CN4CCC(c5ccc(Br)cc5)CC4)ccc3C2=O)C(=O)N1 (stereo not drawn) [GT-04493, 3-(5-((4-(4-bromophenyl)piperidin-1-yl)methyl)-1-oxoisoindolin-2-yl)piperidine-2,6-dione]
IKZF3
  IKZF3 substrate protein remaining %: B (80%< substrate protein remaining %≤ 100%)
MM.1R
  IC50: 10 to 50 nM
CCRF-CEM
  IC50: 10 to 50 nM
CAL-62
  IC50: 10 to 50 nM
[2]
  IC50: 500 to 1000 nM
GSPT1
  GSPT1 substrate protein remaining %: A (0% ≤ substrate protein remaining % ≤ 80%)
WEE1
  Weel substrate protein remaining %: A (0% ≤ substrate protein remaining % ≤ 80%)
CK1α
  CK1a substrate protein remaining %: A (0% ≤ substrate protein remaining % ≤ 80%)
Jurkat
  IC50: 10 to 50 nM
IKZF1
  IKZF 1 substrate protein remaining %: B (80%< substrate protein remaining %≤ 100%)
Vcap
  IC50: 100 to 500 nM
IKZF2
  IKZF2 substrate protein remaining %: A (0% ≤ substrate protein remaining % ≤ 80%)

## O=C1CCC(N2Cc3cc(CN4CC=C(c5cccc(F)c5Cl)CC4)ccc3C2=O)C(=O)N1 (stereo not drawn) [GT-04554, 3-(5-((4-(2-chloro-3-fluorophenyl)-3,6-dihydropyridin-1(2H)-yl)methyl)-1-oxoisoindolin-2-yl)piperidine-2,6-dione]
IKZF3
  IKZF3 substrate protein remaining %: A (0% ≤ substrate protein remaining % ≤ 80%)
NCI-H1975
  IC50: 1 to 5 nM
MM.1R
  IC50: < 1 nM
CAL-62
  IC50: < 1 nM
[1]
  IC50: < 1 nM
[2]
  IC50: 500 to 1000 nM
GSPT1
  GSPT1 substrate protein remaining %: A (0% ≤ substrate protein remaining % ≤ 80%)
[3]
  IC50: 1 to 5 nM
WEE1
  Weel substrate protein remaining %: A (0% ≤ substrate protein remaining % ≤ 80%)
CK1α
  CK1a substrate protein remaining %: A (0% ≤ substrate protein remaining % ≤ 80%)
Jurkat
  IC50: < 1 nM
IKZF1
  IKZF 1 substrate protein remaining %: A (0% ≤ substrate protein remaining % ≤ 80%)
IKZF2
  IKZF2 substrate protein remaining %: A (0% ≤ substrate protein remaining % ≤ 80%)

## O=C1CCC(N2Cc3cc(CN4CC=C(c5ccnc(F)c5F)CC4)ccc3C2=O)C(=O)N1 (stereo not drawn) [GT-04555, 3-(5-((2',3'-difluoro-3,6-dihydro-[4,4'-bipyridin]-1(2H)-yl)methyl)-1-oxoisoindolin-2-yl)piperidine-2,6-dione]
IKZF3
  IKZF3 substrate protein remaining %: A (0% ≤ substrate protein remaining % ≤ 80%)
NCI-H1975
  IC50: 100 to 500 nM
MM.1R
  IC50: 5 to 10 nM
CAL-62
  IC50: 10 to 50 nM
[1]
  IC50: 10 to 50 nM
[2]
  IC50: 500 to 1000 nM
GSPT1
  GSPT1 substrate protein remaining %: A (0% ≤ substrate protein remaining % ≤ 80%)
[3]
  IC50: 500 to 1000 nM
WEE1
  Weel substrate protein remaining %: A (0% ≤ substrate protein remaining % ≤ 80%)
CK1α
  CK1a substrate protein remaining %: A (0% ≤ substrate protein remaining % ≤ 80%)
Jurkat
  IC50: 5 to 10 nM
IKZF1
  IKZF 1 substrate protein remaining %: A (0% ≤ substrate protein remaining % ≤ 80%)
IKZF2
  IKZF2 substrate protein remaining %: A (0% ≤ substrate protein remaining % ≤ 80%)

## O=C1CCC(N2Cc3cc(CN4CC=C(c5cncc(Cl)c5Cl)CC4)ccc3C2=O)C(=O)N1 (stereo not drawn) [GT-04558, 3-(5-((4,5-dichloro-3',6'-dihydro-[3,4'-bipyridin]-1'(2'H)-yl)methyl)-1-oxoisoindolin-2-yl)piperidine-2,6-dione]
IKZF3
  IKZF3 substrate protein remaining %: A (0% ≤ substrate protein remaining % ≤ 80%)
NCI-H1975
  IC50: 5 to 10 nM
MM.1R
  IC50: < 1 nM
CAL-62
  IC50: 1 to 5 nM
[1]
  IC50: 1 to 5 nM
[2]
  IC50: < 500 nM
GSPT1
  GSPT1 substrate protein remaining %: A (0% ≤ substrate protein remaining % ≤ 80%)
[3]
  IC50: 5 to 10 nM
WEE1
  Weel substrate protein remaining %: A (0% ≤ substrate protein remaining % ≤ 80%)
CK1α
  CK1a substrate protein remaining %: A (0% ≤ substrate protein remaining % ≤ 80%)
Jurkat
  IC50: < 1 nM
IKZF1
  IKZF 1 substrate protein remaining %: A (0% ≤ substrate protein remaining % ≤ 80%)
IKZF2
  IKZF2 substrate protein remaining %: A (0% ≤ substrate protein remaining % ≤ 80%)

## O=C1CCC(N2Cc3cc(CN4CC=C(c5ccnc(Cl)c5Cl)CC4)ccc3C2=O)C(=O)N1 (stereo not drawn) [GT-04559, 3-(5-((2',3'-dichloro-3,6-dihydro-[4,4'-bipyridin]-1(2H)-yl)methyl)-1-oxoisoindolin-2-yl)piperidine-2,6-dione]
IKZF3
  IKZF3 substrate protein remaining %: A (0% ≤ substrate protein remaining % ≤ 80%)
NCI-H1975
  IC50: 10 to 50 nM
MM.1R
  IC50: 1 to 5 nM
CAL-62
  IC50: 1 to 5 nM
[1]
  IC50: 1 to 5 nM
[2]
  IC50: < 500 nM
GSPT1
  GSPT1 substrate protein remaining %: A (0% ≤ substrate protein remaining % ≤ 80%)
[3]
  IC50: 10 to 50 nM
WEE1
  Weel substrate protein remaining %: A (0% ≤ substrate protein remaining % ≤ 80%)
CK1α
  CK1a substrate protein remaining %: A (0% ≤ substrate protein remaining % ≤ 80%)
Jurkat
  IC50: 1 to 5 nM
IKZF1
  IKZF 1 substrate protein remaining %: A (0% ≤ substrate protein remaining % ≤ 80%)
IKZF2
  IKZF2 substrate protein remaining %: A (0% ≤ substrate protein remaining % ≤ 80%)
